Measurements as given in PubChem BioAssay (NCI).
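Cells were grown in 96-well plates and exposed to each compound for 48 hours at five concentrations; endpoints were interpolated linearly between bracketing concentrations, or set to the highest concentration if not reached. TGI is the concentration that stops growth completely.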 Where a SMILES comes first, the peptide text is derived from it. The star is where a group is joined. Cbz = O=C(OCc1ccccc1)*; Boc = CC(C)(C)OC(=O)*; OSu = O=C1CCC(=O)N1O*; Bn = c1ccc(C*)cc1

Assays:
Test in all cases: NCI anticancer screen, dose series, 48 h
[1] = tested on: CAKI-1 renal
[2] = tested on: HCC-2998 colon
[3] = tested on: HL-60(TB) leukemia
[4] = tested on: HOP-62 NSCLC
[5] = tested on: IGROV1 ovarian
[6] = tested on: KM12 colon
[7] = tested on: MCF7 breast
[8] = tested on: MDA-MB-435
[9] = tested on: NCI-H522 lung
[10] = tested on: RXF 393 renal
[11] = tested on: SF-268 CNS
[12] = tested on: SK-MEL-2 melanoma
[13] = tested on: T-47D breast
[14] = tested on: TK-10 renal
[15] = tested on: HOP-92 NSCLC

| SMILES | TGI [1] [µM] | TGI [2] [µM] | TGI [3] [µM] | TGI [4] [µM] | TGI [5] [µM] | TGI [6] [µM] | TGI [7] [µM] | TGI [8] [µM] | TGI [9] [µM] | TGI [10] [µM] | TGI [11] [µM] | TGI [12] [µM] | TGI [13] [µM] | TGI [14] [µM] | TGI [15] [µM] |
| --- | --- | --- | --- | --- | --- | --- | --- | --- | --- | --- | --- | --- | --- | --- | --- |
| c1ccc([P+](Cc2ccccc2C[P+](c2ccccc2)(c2ccccc2)c2ccccc2)(c2ccccc2)c2ccccc2)cc1 | > 100 | > 100 | > 100 | > 100 | > 100 | > 100 | > 100 | > 100 | > 100 | > 100 | > 100 | > 100 | > 100 | > 100 | – |
| CO[C@@H]1C=C[C@@]23c4cc5c(cc4C(=O)O[C@H]2CN(C)[C@H]3C1)OCO5 | – | > 100 | > 100 | – | > 100 | > 100 | – | – | > 100 | > 100 | > 100 | > 100 | – | > 100 | > 100 |
| CC(=O)NC1=C(NCCN(C)C)C(=O)c2ccccc2C1=O | – | > 50 | 22.5 | > 50 | > 50 | > 50 | – | – | 23.8 | > 50 | > 50 | > 50 | – | > 50 | – |
| CC(C)(C)OC(=O)NC(Cc1ccc(OCc2ccccc2)cc1)C(=O)NC(CCCCNC(=O)OCc1ccccc1)C(=O)ON1C(=O)CCC1=O (stereo not drawn) (Boc-Tyr(Bn)-Lys(Cbz)-OSu; configuration not given here) | – | 32 | 49.3 | 42.8 | 33.1 | 65.5 | 44.3 | – | – | 55.3 | – | 33.8 | – | > 100 | – |
| CC(NC(=O)C(N)CC(=O)O)NC(=O)C1CCC1 (stereo not drawn) | > 100 | – | – | > 100 | – | > 100 | > 100 | > 100 | > 100 | > 100 | > 100 | > 100 | > 100 | > 100 | – |
| COc1cccc2c1OC(c1ccc(C#N)cc1)C([N+](=O)[O-])=C2 (stereo not drawn) | 4.89 | 3.15 | 5.62 | 8.3 | 3.76 | – | 2.88 | 2.72 | 0.412 | 3.12 | 16.1 | 4.38 | – | 7.77 | 3.27 |
| N#Cc1c(N)[nH]c(=S)c(C#N)c1-c1ccccc1 | > 100 | > 100 | > 100 | > 100 | > 100 | > 100 | > 100 | – | > 100 | > 100 | > 100 | > 100 | > 100 | > 100 | – |
| CCCCC(Sc1cc(Cl)c(C)cc1S(=O)(=O)Nc1n[nH]c(N)n1)C(=O)OC (stereo not drawn) | > 10 | > 10 | > 10 | > 10 | > 10 | > 10 | > 10 | > 10 | > 10 | > 10 | > 10 | > 10 | > 10 | > 10 | – |
| C=C(C)[C@@]1(OC(=O)c2cc([N+](=O)[O-])cc([N+](=O)[O-])c2)C[C@@H]2CCCC[C@@H]21 | > 100 | > 100 | > 100 | > 100 | > 100 | > 100 | > 100 | – | > 100 | – | > 100 | > 100 | > 100 | > 100 | – |
| CC(=O)Nc1ccc2[nH]c(-c3cccc(Cl)c3)cc(=O)c2c1 | – | 63.5 | > 100 | > 100 | > 100 | > 100 | > 100 | 6.93 | > 100 | – | – | – | – | > 100 | > 100 |
| CC(SC(=S)N1CCOCC1)C(=O)Nc1nnc(-c2ccccc2)o1 (stereo not drawn) | > 100 | – | 20.5 | > 100 | > 100 | > 100 | > 100 | > 100 | > 100 | > 100 | – | > 100 | > 100 | > 100 | – |
| CC(C)(C)OC(=O)NCCc1cccc2c1oc1c(CCC(=O)O)cccc12 | > 100 | > 100 | > 100 | – | > 100 | > 100 | – | – | > 100 | > 100 | > 100 | > 100 | – | > 100 | > 100 |
| Cc1ncc2c(=O)c3c(oc2n1)c1ccccc1n3Cc1ccccc1 | > 100 | > 100 | > 100 | 79.5 | > 100 | > 100 | > 100 | > 100 | > 100 | > 100 | > 100 | – | > 100 | > 100 | – |
| C[n+]1c(-c2ccc(/C=N/NC(=O)C(=O)N/N=C/c3ccc(-c4cn5ccsc5[n+]4C)cc3)cc2)cn2ccsc21 | – | > 100 | > 100 | > 100 | > 100 | > 100 | > 100 | > 100 | > 100 | – | > 100 | – | > 100 | > 100 | – |
| O=C(CSc1nc2[nH]ncc2c(=O)[nH]1)c1ccc(Cl)cc1 | > 100 | > 100 | – | > 100 | > 100 | > 100 | > 100 | > 100 | > 100 | > 100 | > 100 | > 100 | > 100 | > 100 | – |
| Cc1nnc2sc(NN)nn12 | > 100 | – | – | > 100 | > 100 | > 100 | > 100 | > 100 | > 100 | > 100 | > 100 | > 100 | > 100 | > 100 | – |
| COc1ccc2cc(C(=O)O)ccc2c1OC | > 100 | > 100 | > 100 | > 100 | > 100 | > 100 | > 100 | > 100 | > 100 | – | > 100 | > 100 | > 100 | – | – |
| C=C[C@@H]1C[C@]2(C(=O)OC)Cc3nc4ccccc4nc3CC(C(=O)OC)=C2O1 | > 100 | – | > 100 | > 100 | > 100 | > 100 | > 100 | > 100 | > 100 | > 100 | > 100 | > 100 | > 100 | > 100 | – |
